Laboratory results published in patent publication US20250122218A1, “MODULATORS OF CYSTIC FIBROSIS TRANSMEMBRANE CONDUCTANCE REGULATOR” (Vertex Pharmaceuticals Incorporated, priority 2022, published 2025).

Biological target: T1, CFTR in F508del/MF-HBE cells (Homo sapiens, UniProt P13569, DEL508-508)
T1 construct: human bronchial epithelial (HBE) cells derived from CF subjects heterozygous for F508del and a minimal function CFTR mutation; endogenous in cells; host or cells: primary human bronchial epithelial cells from CF subjects (F508del/MF-HBE)
T1 sequence (P13569 with tags, fused parts or gaps DEL508-508): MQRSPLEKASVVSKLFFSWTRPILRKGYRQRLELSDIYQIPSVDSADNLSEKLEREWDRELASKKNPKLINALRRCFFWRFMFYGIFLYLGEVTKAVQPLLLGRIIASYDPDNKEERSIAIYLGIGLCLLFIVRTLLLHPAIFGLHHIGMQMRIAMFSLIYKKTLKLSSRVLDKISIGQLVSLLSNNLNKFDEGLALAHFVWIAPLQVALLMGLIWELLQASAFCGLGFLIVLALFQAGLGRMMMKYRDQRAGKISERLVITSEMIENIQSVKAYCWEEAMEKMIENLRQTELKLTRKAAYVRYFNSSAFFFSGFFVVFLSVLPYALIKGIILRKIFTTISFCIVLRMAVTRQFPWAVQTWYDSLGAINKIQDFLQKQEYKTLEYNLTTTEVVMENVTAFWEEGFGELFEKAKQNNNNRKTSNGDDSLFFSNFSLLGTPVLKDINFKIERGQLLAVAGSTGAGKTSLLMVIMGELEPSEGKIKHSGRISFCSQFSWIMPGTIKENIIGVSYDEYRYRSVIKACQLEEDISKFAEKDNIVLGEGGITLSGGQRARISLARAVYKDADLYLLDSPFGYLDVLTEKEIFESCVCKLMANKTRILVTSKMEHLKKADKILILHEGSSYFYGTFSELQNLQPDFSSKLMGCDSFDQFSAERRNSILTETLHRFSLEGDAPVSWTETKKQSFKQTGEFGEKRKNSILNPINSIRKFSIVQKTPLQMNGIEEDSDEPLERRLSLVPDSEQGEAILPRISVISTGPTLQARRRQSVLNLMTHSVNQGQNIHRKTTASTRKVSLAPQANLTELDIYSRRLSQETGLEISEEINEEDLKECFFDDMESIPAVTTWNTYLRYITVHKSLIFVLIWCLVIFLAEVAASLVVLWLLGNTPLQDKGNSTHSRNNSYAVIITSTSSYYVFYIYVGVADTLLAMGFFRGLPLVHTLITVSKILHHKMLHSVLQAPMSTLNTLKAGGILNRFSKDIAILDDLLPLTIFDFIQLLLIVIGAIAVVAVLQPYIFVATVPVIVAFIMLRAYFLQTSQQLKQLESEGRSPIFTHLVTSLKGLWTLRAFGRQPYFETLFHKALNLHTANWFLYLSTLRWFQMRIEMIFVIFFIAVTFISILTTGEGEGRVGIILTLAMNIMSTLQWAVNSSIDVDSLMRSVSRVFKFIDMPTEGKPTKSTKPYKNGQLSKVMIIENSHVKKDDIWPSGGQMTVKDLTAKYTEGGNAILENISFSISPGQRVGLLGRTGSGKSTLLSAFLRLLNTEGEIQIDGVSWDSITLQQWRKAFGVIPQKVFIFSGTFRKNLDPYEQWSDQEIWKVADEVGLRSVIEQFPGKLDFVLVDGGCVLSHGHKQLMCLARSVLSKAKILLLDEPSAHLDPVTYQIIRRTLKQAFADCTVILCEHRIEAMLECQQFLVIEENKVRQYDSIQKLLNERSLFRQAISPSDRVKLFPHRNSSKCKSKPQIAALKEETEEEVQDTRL
Assay: Ussing chamber assay of CFTR-mediated short-circuit currents (identification of potentiator compounds)
Assay type: cell-based
Settings: potentiator incubated 18-24 hours at 37° C. in combination with 10 μM corrector, in the presence of 20% human serum, CFTR-mediated ISC
Procedure, shortened: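 Short-circuit current was measured in Ussing chambers at 37° C, Vhold 0 mV, 30 μM apical amiloride. CFTR current was defined as the forskolin (20 μM) response relative to the current remaining after BPO/GlyH-101/inhibitor 172 (20 μM each). Before recording, cells had 18-24 h exposure to test potentiators with 10 μM corrector compound in 20% human serum.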

EC50 [nM]	Compound
< 500	Cc1cc(CN2CCCCC[C@](O)(C(F)(F)F)C3=NN=C(O3)c3nc(c(C(F)(F)F)cc3N)C2=O)cc(OC(F)(F)F)c1 [Compound 179, (6R)-17-amino-6-hydroxy-12-[[3-methyl-5-(trifluoromethoxy)phenyl]methyl]-6,15-bis (trifluoromethyl)-19-oxa-3,4,12,18-tetrazatricyclo [12.3.1.12,5] nonadeca-1(18),2,4,14,1 6-pentaen-13-one]
< 500	Cc1c(CN2CCCCC[C@](O)(C(F)(F)F)C3=NN=C(O3)c3nc(c(C(F)(F)F)cc3N)C2=O)cccc1OC(F)(F)F [Compound 180, (6R)-17-amino-6-hydroxy-12-[[2-methyl-3-(trifluoromethoxy)phenyl]methyl]-6,15-bis(trifluoromethyl)-19-oxa-3,4,12,18-tetrazatricyclo [12.3.1.12,5] nonadeca-1(18),2,4,14,1 6-pentaen-13-one]
< 500	Nc1cc(C(F)(F)F)c2nc1-c1nnc(o1)[C@@](O)(C(F)(F)F)CCCCCN(Cc1ccc(OCC(F)(F)F)cc1)C2=O [Compound 181, (6R)-17-amino-6-hydroxy-12-[[4-(2,2,2-trifluoroethoxy)phenyl]methyl]-6,15-bis (trifluoromethyl)-19-oxa-3,4,12,18-tetrazatricyclo [12.3.1.12,5] nonadeca-1(18),2,4,14,1 6-pentaen-13-one]
< 500	Nc1cc(C(F)(F)F)c2nc1-c1nnc(o1)[C@@](O)(C(F)(F)F)CCCCCN(Cc1cccc(C(F)(F)F)c1)C2=O [Compound 182, (6R)-17-amino-6-hydroxy-6,15-bis (trifluoromethyl)-12-[[3-(trifluoromethyl)phenyl]methyl]-19-oxa-3,4,12,18-tetrazatricyclo [12.3.1.12,5] nonadeca-1(18),2,4,14,1 6-pentaen-13-one]
< 500	C[C@H]1C[C@H](c2ccc(CN3CCCCC[C@](O)(C(F)(F)F)C4=NN=C(O4)c4nc(c(C(F)(F)F)cc4N)C3=O)cc2)C1 [Compound 183, (6R)-17-amino-6-hydroxy-12-({4-[trans-3-methylcyclobutyl]phenyl}methyl)-6,15-bis (trifluoromethyl)-19-oxa-3,4,12,18-tetraazatricyclo [12.3.1.12,5] nonadeca-1(18),2,4,14,1 6-pentaen-13-one]
< 500	CC(C)(C)c1cccc(CN2CCCCC[C@](O)(C(F)(F)F)C3=NN=C(O3)c3nc(c(C(F)(F)F)cc3N)C2=O)n1 [Compound 184, (6R)-17-amino-12-[(6-tert-butyl-2-pyridyl)methyl]-6-hydroxy-6,15-bis (trifluoromethyl)-19-oxa-3,4,12,18-tetrazatricyclo [12.3.1.12,5] nonadeca-1(18),2,4,14,1 6-pentaen-13-one]
< 500	Nc1cc(C(F)(F)F)c2nc1-c1nnc(o1)[C@@](O)(C(F)(F)F)CCCCCN(Cc1cccc(N3CCCCC3)n1)C2=O [Compound 185, (6R)-17-amino-6-hydroxy-12-[[6-(1-piperidyl)-2-pyridyl]methyl]-6,15-bis (trifluoromethyl)-19-oxa-3,4,12,18-tetrazatricyclo [12.3.1.12,5] nonadeca-1(18),2,4,14,1 6-pentaen-13-one]
< 500	Nc1cc(C(F)(F)F)c2nc1-c1nnc(o1)[C@@](O)(C(F)(F)F)CCCCCN(Cc1cccc(OCC(F)(F)F)c1)C2=O [Compound 186, (6R)-17-amino-6-hydroxy-12-[[3-(2,2,2-trifluoroethoxy)phenyl]methyl]-6,15-bis (trifluoromethyl)-19-oxa-3,4,12,18-tetrazatricyclo [12.3.1.12,5] nonadeca-1(18),2,4,14,1 6-pentaen-13-one]
< 500	Nc1cc(C(F)(F)F)c2nc1-c1nnc(o1)[C@@](O)(C(F)(F)F)CCCCCN(Cc1ccc(N3CCCCC3)nc1)C2=O [Compound 187, (6R)-17-amino-6-hydroxy-12-[[6-(1-piperidyl)-3-pyridyl]methyl]-6,15-bis (trifluoromethyl)-19-oxa-3,4,12,18-tetrazatricyclo [12.3.1.12,5] nonadeca-1(18),2,4,14,1 6-pentaen-13-one]

The remaining lines, values behind:

Compound	EC50 [nM]
CC(C)(C)c1ncc(CN2CCCCC[C@](O)(C(F)(F)F)C3=NN=C(O3)c3nc(c(C(F)(F)F)cc3N)C2=O)cn1 [Compound 171, (6R)-17-amino-12-[(2-tert-butylpyrimidin-5-yl)methyl]-6-hydroxy-6,15-bis (trifluoromethyl)-19-oxa-3,4,12,18-tetrazatricyclo [12.3.1.12,5] nonadeca-1(18),2,4,14,1 6-pentaen-13-one]	< 500
CC(C)Oc1cccc(CN2CCCCC[C@](O)(C(F)(F)F)C3=NN=C(O3)c3nc(c(C(F)(F)F)cc3N)C2=O)c1 [Compound 172, (6R)-17-amino-6-hydroxy-12-[(3-isopropoxyphenyl)methyl]-6,15-bis (trifluoromethyl)-19-oxa-3,4,12,18-tetrazatricyclo [12.3.1.12,5] nonadeca-1(18),2,4,14,1 6-pentaen-13-one]	< 500
Nc1cc(C(F)(F)F)c2nc1-c1nnc(o1)[C@@](O)(C(F)(F)F)CCCCCN(Cc1ccc(-c3ccccc3)cc1)C2=O [Compound 173, (6R)-17-amino-6-hydroxy-12-[(4-phenylphenyl)methyl]-6,15-bis (trifluoromethyl)-19-oxa-3,4,12,18-tetrazatricyclo [12.3.1.12,5] nonadeca-1(18),2,4,14,1 6-pentaen-13-one]	< 500
CC1(C)CCCC[C@](O)(C(F)(F)F)C2=NN=C(O2)c2nc(c(C(F)(F)F)cc2N)C(=O)N1 [Compound 174, (6R)-17-amino-6-hydroxy-11,11-dimethyl-6,15-bis (trifluoromethyl)-19-oxa-3,4,12,18-tetrazatricyclo [12.3.1.12,5] nonadeca-1(18),2,4,14,1 6-pentaen-13-one]	< 500
COc1ccc(CN2CCCCC[C@](O)(C(F)(F)F)C3=NN=C(O3)c3nc(c(C(F)(F)F)cc3N)C2=O)c(F)c1F [Compound 175, (6R)-17-amino-12-[(2,3-difluoro-4-methoxy-phenyl)methyl]-6-hydroxy-6,15-bis (trifluoromethyl)-19-oxa-3,4,12,18-tetrazatricyclo [12.3.1.12,5] nonadeca-1(18),2,4,14,1 6-pentaen-13-one]	< 500
COc1cc(F)cc(CN2CCCCC[C@](O)(C(F)(F)F)C3=NN=C(O3)c3nc(c(C(F)(F)F)cc3N)C2=O)c1 [Compound 176, (6R)-17-amino-12-[(3-fluoro-5-methoxy-phenyl)methyl]-6-hydroxy-6,5-bis (trifluoromethyl)-19-oxa-3,4,12,18-tetrazatricyclo [12.3.1.12,5] nonadeca-1(18),2,4,14,1 6-pentaen-13-one]	< 500
COc1ccc(CN2CCCCC[C@](O)(C(F)(F)F)C3=NN=C(O3)c3nc(c(C(F)(F)F)cc3N)C2=O)c(F)c1 [Compound 177, (6R)-17-amino-12-[(2-fluoro-4-methoxy-phenyl)methyl]-6-hydroxy-6,15-bis (trifluorom ethyl)-19-oxa-3,4,12,18-tetrazatricyclo [12.3.1.12,5] nonadeca-1(18),2,4,14,1 6-pentaen-13-one]	< 500
Nc1cc(C(F)(F)F)c2nc1-c1nnc(o1)[C@@](O)(C(F)(F)F)CCCCCN(Cc1cc(Cl)cc(OC(F)(F)F)c1)C2=O [Compound 178, (6R)-17-amino-12-[[3-chloro-5-(trifluoromethoxy)phenyl]methyl]-6-hydroxy-6,15-bis (trifluoromethyl)-19-oxa-3,4,12,18-tetrazatricyclo [12.3.1.12,5] nonadeca-1(18),2,4,14,1 6-pentaen-13-one]	< 500
